Where a name gives a salt, the structure may show the parent alone. Read-outs that look alike come from different tables or passages of the source.
How the values were obtained:
[1] = tested on: monolayers formed by human colon carcinoma cell line Caco-2; assay: Apparent permeation across Caco-2 cell monolayers; format: in vitro ADME; conditions: Caco-2 cell monolayers; 127 µg/ml
Procedure: (§1) The biorelevant dissolution profile of the embodiment positively affects the second relevant parameter predicting the compound's oral bioavailability, i.e. its permeability. As shown in apparent permeation studies across monolayers formed by human colon carcinoma cell line Caco-2 the spring and parachute effect observed for formulated RhuDex® choline salt also leads to a higher permeation rate when compared with its crystalline and unformulated counterpart. The permeation assays were performed using an apical buffer at a pH value of 7.0 and a basolateral buffer at a pH value of 7.4. The test concentration was set to 127 µg/ml and should represent a potential clinical dose of 31.75 mg RhuDex® choline salt administrered in a volume of 250 ml (i.e. 31.75 mg/250 ml = 0.127 mg/ml). With an apparent permeation value (Papp) of less than 1 (i.e. 0.12 x 10^-6 cm/s) the permeability of crystalline RhuDex® choline salt across Caco-2 cell monolayers must be classified as poor and a low bioavailability of unformulated drug substance can be estimated. However, the Papp value increased to 2.7 x 10^-6 cm/s when using an amorphous solid dispersion of RhuDex® choline salt in the same experiment indicating a remarkable shift from low to moderate permeability. This effect can be cleary attributed to the embodiment.

[2] = Apparent permeation across Caco-2 cell monolayers; format: in vitro ADME, human; conditions: human, Caco-2; apical buffer pH 7.0, basolateral buffer pH 7.4; test concentration 127 µg/ml
Procedure: as §1

[3] = Saturation solubility, shake-flask method, quantification by HPLC/UV; format: physicochemical; conditions: for solubility at 24 h: 37 °C, thermodynamic from solid
Procedure: The saturation solubility of RhuDex® choline salt determined at 37°C after 24 hours by HPLC/UV using the shake-flask method is at around or below 0.001 mg/mL when using standard media or buffers such as 0.1 N hydrochloric acid pH 1.2 and 50 mM phosphate buffer pH 7.0 or biorelevant media such as Fasted-State Simulated Intestinal Fluid (i.e. FaSSIF) pH 6.5 and Fed-State Simulated Intestinal Fluid (FeSSIF) pH 5.0.
When increasing the pH value above the pKa and beyond the physiological conditions (i.e. pH > 8), the opposite effect occurs as the molecule is transferred into its negatively charged and soluble ion. […] However, these enabling technologies are neither standard nor easily applicable as they directly affect the physical properties of the drug substance and thereby its thermodynamic stability. Therefore, there is an extremely high risk of failure associated with these technologies concluding that the drug substance cannot be further developed into a suitable, stable, bioavailable and commercially viable formulation. Table 2: Saturation solubility of RhuDex® choline salt in biorelevant media (shake-flask method, 24 h at 37°C, quantification by HPLC/UV)

[4] = as above; format: physicochemical; conditions: 0.01 N HCl, 37 °C, pH 2, simulated gastric fluid, thermodynamic from solid, 0.01 N HCl pH 2; 24 h at 37°C
[5] = Two-stage biorelevant in vitro dissolution test (acid stage pH 2.0, buffer stage pH 7.0, non-sink conditions); format: physicochemical
Excerpt: To characterize the in vitro performance of the gastro-resistant granules that contain the RhuDex® choline salt as an amorphous solid dispersion a predictive biorelevant dissolution method has been developed. The design of the method comprises a two-stage in vitro dissolution test that simulates the conditions of the gastrointestinal passage. In a first step the formulation is exposed to simulated gastric fluid where the enteric protection provided by the outer hypromellose succinate acetate layer should ensure that there is no premature drug substance release from the granules. The subsequent step simulates the condition of the upper intestine where the enteric polymer should immediately dissolve and where the drug substance release should start. The gastro-resistance and the release profile are measured by the amount of RhuDex® choline salt dissolved in the acid and buffer medium. The established test system relies on the use of standard media and buffer systems without the addition of any surfactants or bile acids. […] The extent of the spring and parachute effect should be measurable in the simulated intestinal fluid. The parameters of the biorelevant dissolution method are presented below. Summarizing the established conditions for testing the biorelevant dissolution of RhuDex® choline salt gastro-resistant granules, the studies are conducted under non-sink conditions as follows: […]

[6] = Hygroscopicity of the drug substance; format: physicochemical
[7] = pKa value of the drug substance; format: physicochemical; conditions: free acid

Compound | permeability classification [1] | Papp at 127 µg/ml [2] [×10⁻⁶ cm/s] | biopharmaceutics classification system (BCS) class [3] | solubility at 24 h ([3]; 50 mM borate buffer, pH 9.5, aqueous buffer, 50 mM borate buffer, pH 9.5, read-out: solubility) [µg/mL] | solubility at 24 h ([3]; 50 mM phosphate buffer, pH 7, aqueous buffer, Phosphate buffer 50 mM, pH 7.0, 24 h at 37°C, read-out: Saturation solubility) [µg/mL] | solubility at 24 h ([3]; 50 mM phosphate buffer, pH 7, aqueous buffer, pH 7.0, read-out: solubility of the drug substance) [µg/mL] | solubility at 24 h ([3]; aqueous buffer, 37°C, 24 hours, shake-flask, 0.1 N hydrochloric acid pH 1.2, 50 mM phosphate buffer pH 7.0, FaSSIF pH 6.5, FeSSIF pH 5.0, read-out: saturation solubility) [µg/mL] | solubility at 24 h ([3]; FaSSIF, pH 6.5, fassif, FaSSIF, pH 6.5, 24 h at 37°C, read-out: Saturation solubility) [µg/mL] | solubility at 24 h ([3]; FeSSIF, pH 5, fessif, FeSSIF, pH 5.0, 24 h at 37°C, read-out: Saturation solubility) [µg/mL] | volume required to completely dissolve one dose ([3]; dose 31.75 mg, minimum solubility 0.001 mg/mL, physiologically relevant conditions) | solubility at 24 h ([3]; water, pH 9.9, water, in water, final pH value of the solution 9.9, read-out: solubility) [µg/mL] | solubility at 24 h [4] [µg/mL] | amount in solution when presented in crystalline form ([5]; 0.001 mg/ml x 460 ml, buffer pH 7.0) [mg] | dose in solution when presented in crystalline form ([5]; calculated from solubility 0.001 mg/ml in 460 ml buffer pH 7.0, dose 31.75 mg) [%] | hygroscopicity [6] | pKa [7]
O=C(NCC(F)F)c1ccc(-n2[nH]c3c(nnc4c(F)cccc43)c2=O)cc1 [RhuDex® choline salt, N-(2,2-difluoroethyl)-4-(6-fluoro-3-oxo-1,3-dihydropyrazolo[4,3-c]cinnolin-2-yl)-benzamide] | poor | 0.12 | either Class II (low solubility/high permeability) or Class IV (low solubility/low permeability) | 1300 | 0.7 | ~1 | ≤ 1 | 1.1 | 0.1 | more than 30 L | ~10000 | 0.1 | 0.46 | 1.4 | only slightly hygroscopic | –
O=C(NCC(F)F)c1ccc(-n2[nH]c3c(nnc4c(F)cccc43)c2=O)cc1 [RhuDex® free acid, 4-(6-fluoro-3-oxo-1,3-dihydro-pyrazolo[4,3-c]cinnolin-2-yl)-N-(2,2-difluoro-ethyl)-benzamide] | – | – | – | – | – | – | – | – | – | – | – | – | – | – | – | 5.8
